Experimental data published in paper PMC10025185, “A continuous in silico learning strategy to identify safety liabilities in compounds used in the leather and textile industry” (Archives of Toxicology, 2023).
Read-outs that look alike come from different tables or passages of the source.

How the values were obtained:
[1] = test system: Bhas 42 cell line; assay: Bhas 42 cell transformation assay (carcinogenesis); type: cell-based
Experimental: This assay was carried out by adapting the in vitro Bhas 42 cell transformation assay method described in the OECD Guidance Document No. 231 ([2017]) based on the work of Sasaki et al. ([2014]).
It consists of two assays with a different test compound addition schedule to identify compounds with initiating activity (tumour initiators) or promoting activity (tumour promoters). Previously, a cell growth assay for 7 days is performed to set the assay doses of the CTA and another cell growth assay is concurrently performed to the CTA to verify that the selected doses meet the acceptance criteria for the tests.
The carcinogenesis potential of the compound was assayed by means of measuring the frequency of transformed foci (morphologically altered cells that form discrete anchorage-independent colonies) in the Bhas 42 cell line, which can be extrapolated to an assessment of carcinogenic potential. In the transformation assay, the incubation of compounds with two different treatment schedules allowed to identify the initiating or promoting carcinogenic potential of the compounds.

[2] = test system: androgen and oestrogen receptors; assay: ED assays of androgen and oestrogen receptors (overall experimental ED result); type: cell-based
Experimental: The transcriptional activation of androgen receptor (AR) assays was carried out by adapting the OECD protocol 458 (OECD [2020]).
MDA-MB-453 cells (8000 cells/well) expressing an AR luciferase reporter were seeded into 384 white plates (Greiner 781098) in culture medium (DMEM (ATCC), 10% foetal bovine serum (Sigma Aldrich), 1% penicillin–streptomycin (Sigma-Aldrich), 75 µg/ml geneticin (Gibco) and incubated overnight at 37 °C 5% CO2 and 95% humidity. After this time, the cell culture medium was discarded and replaced by assay medium (DMEM (ATCC), 0.1% foetal bovine serum (Sigma-Aldrich), and 1% penicillin–streptomycin (Sigma Aldrich)).
For studying a putative agonist effect, compounds were added to the assay plate using an Echo 550 acoustic liquid handler and incubated overnight at 37 °C 5% CO2 and 95% humidity. For studying the putative antagonist effect, compounds were added using an Echo 550 acoustic liquid handler and incubated for 15 min at 37 °C 5% CO2 and 95% humidity. Then, 1 nM 5α-dihydrotestosterone (DHT) was added, and the cell plate was incubated overnight at 37 °C, 5% CO2, and 95% humidity. After compound incubation, the cell medium was removed, 5 µl of lysis buffer 1X (Promega) was added, and the cell plate was incubated with agitation 15 min at room temperature. A freeze–thaw cycle of 10 min at −80 °C and room temperature was performed. Then 25 µl of luciferase assay reagent (Promega) was added and luminescence was determined on an EnSpire plate reader (Perkin Elmer). Data was fitted to a four-parameter sigmoidal model with Prism 5.1 (Graphpad, Inc).
The transcriptional activation of oestrogen receptor (ER) assay was carried out by adapting the OECD protocol 455 (OECD [2021]) and the method of Li et al. ([2013]).
ER luciferase reporter T47D cells (5000 cells/well) were seeded into 384 white plates (Greiner 781098) in culture medium (RPMI 1640 (Thermo Fisher Scientific 52400), 10% foetal bovine serum (Sigma Aldrich F9665), 1% penicillin–streptomycin (Sigma-Aldrich P0781), 75 µg/ml Geneticin (Gibco 10131)) and incubated overnight at 37 °C and 5% CO2. The following day, the cell culture medium was discarded and replaced by assay medium (RPMI 1640 (Thermo Fisher Scientific 52,400), 0.1% foetal bovine serum (Sigma Aldrich F9665), and 1% penicillin–streptomycin (Sigma Aldrich P0781).
The assay was performed as stated before for the AR assay using 17β-estradiol as agonist instead of DHT.
ED was assessed by transactivation in vitro assays to identify agonists and antagonists of the androgen and oestrogen receptors.
Also, the experimental group analysed the endocrine-disrupting activity for the CMR compounds.

[3] = test system: zebrafish embryos
Experimental: Zebrafish embryos obtained and maintained as described previously for toxicity determination were used to determine (I) terato-carcinogenesis assayed as previously informed (Selderslaghs et al. [2009], [2012]) with modifications. In brief, embryos were incubated for 0 hpf up to 120 hpf in the presence and absence of tested compounds. Each condition was assayed in triplicate with 12 embryos per condition per replicate. The appearance of selected characteristics and malformations with respect to normal development were quantified for the eyes, otoliths, heart, circulation, hatching, skeletal deformities, and body position. For each concentration tested, we assessed the mortality and the presence of malformations at 24, 48, 72, 96, and 120 hpf using a light microscope. When possible, the lethal effects (LC50) and terato-carcinogenic effects (EC50) were determined using the ToxRat software. Based on these values, a teratogenic index (TI) was calculated as LC50/EC50. Based on previous studies, we considered a compound to be a teratogen when TI > 2 at 120 hpf. When no TI could be calculated due to no malformations induction to a degree extensive enough to calculate the EC50 in the presence of high toxicity, the compound was considered a non-teratogen. (II) Neurotoxicity was assayed by evaluating the locomotor activity in embryos exposed to the tested compounds from 0 to 120 hpf using Zebrabox and Zebralab (ViewPoint). We tested three concentrations (24 embryos per concentration) below the NOEC to avoid readily toxic concentrations. After incubation with tested compounds for 120 hs in 96-well plates, the activity of larvae in response to transitions from dark to light was evaluated. The protocol involved an initial 10 min acclimation period inside the Zebrabox, followed by three cycles of light–dark of 10 min each. After the end of each cycle, the integrated activity of each embryo was registered. Statistical analysis was done using ANOVA, followed by the Tukey post hoc test. Differences were considered significant when p < 0.05. Dead embryos were not considered in the analysis. (III) The endocrine-disrupting effect in zebrafish embryos was assayed by real-time PCR as previously reported (Jarque et al. [2019]) with modifications. In brief, 0 hpf embryos (12 embryos per condition in triplicate) were incubated with selected compounds for up to 120 hpf. After incubation, treated (embryos incubated at the concentration right below the NOEC) and control embryos were collected in RNA later and kept at − 20°C until use. RNA was extracted from the samples using the RNeasy Mini Kit (QIAGEN) and was followed by cDNA synthesis using random primers and the AffinityScript Multi Temperature cDNA Synthesis Kit (Agilent Technologies). Finally, real-time PCR was performed for eight target genes to obtain data on the estrogenic (cytochrome P450 family 19 subfamily A member 1: cyp19a1b, and vitellogenin: vtg1), androgenic (cytochrome P450 family 2 […]: cyp2k22, and cytosolic sulphotransferase 3: sult2st3), and thyroid hormone (thyroid peroxidase: tpo, thyroid hormone receptor alpha: tra, transthyretin: ttr, and iodothyronine deiodinase 2: dio2) effect of the tested compounds. Significant changes in gene expression between controls and treated samples were considered as a potential endocrine-disrupting effect.

[4] = significant increase in foci frequency in at least two sequential concentrations
[5] = second of two columns headed Neurotoxic
[6] = real-time PCR, zebrafish embryos

Row | Molecule | Carcinogen (C) [1, 4] | Experimental result ([2]; endocrine disruptor yes/no) | Reprotoxicity (R) Endocrine disruptor ([3]; gene expression, 120 hpf, concentration right below NOEC) | Reprotoxicity (R) Neurotoxic [3, 5] | Carcinogen (C) [1] | Experimental result [2] | Reprotoxicity (R) Neurotoxic ([3]; in vivo) | induction of cytochrome P450 2 K [3, 6] | induction of vitellogenin [3, 6] | Reprotoxicity (R) Endocrine disruptor ([3]; in vivo)
1 | Reaction mass of cis-4-(isopropyl) cyclohexanemethanol and trans-4-(isopropyl) cyclohexanemethanol | Yes | No | No | No |  |  |  |  |  | 
2 | CCCCC(CC)CN (stereo not drawn) [2-Ethylhexylamine] |  |  |  |  | Yes | Yes | No | induced | induced | 
3 | CCN(CC)c1ccc(N=Nc2c(Cl)cc([N+](=O)[O-])cc2[N+](=O)[O-])c(NC(C)=O)c1 [N-[2-[(2-chloro-4,6-dinitrophenyl)azo]-5-(diethylamino)phenyl]acetamide] | Yes | Yes |  | No |  |  |  | induced |  | 
4 | O=C(OCCc1ccccc1)c1ccccc1 [Phenethyl benzoate] |  |  |  |  | No | No | No |  |  | No
5 | CNC(=O)c1cc(Cl)ccn1.Cl [4-Chloro-N-methylpyridine-2-carboxamide hydrochloride (1:1)] |  |  |  |  | No | No | No |  |  | No
